Experimental data as given in US12569512B2, “Heparan sulfate (HS) oligosaccharides effect in liver ischemia reperfusion injury” (The University of North Carolina at Chapel Hill, priority 2019, dated 2026).

Key:
human FXa (Homo sapiens) [1] = tested on: T1, human FXa (Homo sapiens); experiment: In vitro anti-FXa activity of oligosaccharides (chromogenic, with antithrombin); type: biochemical; details: for anti-FXa activity (anticoagulant activity): 0-131 nM
T1 construct: purchased Enzyme Research Laboratories (FXa); Cutter Biologics (antithrombin)
T1 sequence (P01008 33-464): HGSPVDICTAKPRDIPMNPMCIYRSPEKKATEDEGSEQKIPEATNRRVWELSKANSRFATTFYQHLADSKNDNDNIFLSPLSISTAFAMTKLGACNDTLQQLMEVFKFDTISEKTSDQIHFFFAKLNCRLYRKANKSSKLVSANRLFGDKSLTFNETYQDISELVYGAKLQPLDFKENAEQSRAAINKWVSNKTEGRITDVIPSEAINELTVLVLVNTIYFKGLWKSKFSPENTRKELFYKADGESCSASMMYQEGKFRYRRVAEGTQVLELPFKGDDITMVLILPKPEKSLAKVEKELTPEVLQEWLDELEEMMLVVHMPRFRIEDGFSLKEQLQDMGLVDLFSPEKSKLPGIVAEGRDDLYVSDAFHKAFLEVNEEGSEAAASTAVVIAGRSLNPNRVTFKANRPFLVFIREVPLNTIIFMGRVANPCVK
Method: (§1) Assays were based on a previously published method. Briefly, human FXa (Enzyme Research Laboratories) was diluted to 50 U ml^−1 with PBS. The chromogenic substrate S-2765 (Diapharma) was diluted to 1 mg ml^−1 in water. For in vitro studies, fondaparinux (available under the trade name ARIXTRA) and 12-mer oligosaccharides were dissolved in PBS at various concentrations (0-131 nM). 16 μl of sample was incubated with 60 μl of […] antithrombin (Cutter Biologics) for 2 min at room temperature. Next, 100 μl of FXa was added and incubated for 4 min at room temperature. 30 μl of S-2765 substrate was added and the absorbance of the reaction mixture was measured at 405 nm continuously for 5 min. PBS serves as a control sample. The maximum slope for each sample was convert to percent FXa activity by dividing by the maximum slope for the control sample.

rat model = details: elevated doses; cited from earlier work
[2] = kidney IR model; cited from earlier work
HMGB1 = target: T2, HMGB1 (Mus musculus, UniProt P63158); experiment: Affinity purification (pulldown) of HMGB1 from liver lysate with biotinylated oligosaccharides, Western analysis; type: binding; details: biotinylated oligosaccharide 0.1 mM, Western blot
T2 construct: used to pull down endogenous HMGB1 from liver lysate; from tissue; host or cells: liver lysate
T2 sequence (P63158 1-215): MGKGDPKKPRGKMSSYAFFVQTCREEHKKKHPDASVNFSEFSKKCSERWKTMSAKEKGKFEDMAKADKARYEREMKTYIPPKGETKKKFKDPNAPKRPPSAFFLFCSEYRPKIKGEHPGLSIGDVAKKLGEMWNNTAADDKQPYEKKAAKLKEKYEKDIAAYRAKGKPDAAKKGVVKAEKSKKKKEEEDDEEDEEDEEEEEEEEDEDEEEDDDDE
Method: The oligosaccharides were converted to biotinylated versions using the same method as described in PCT International Patent Application Serial No. PCT/US2018/059152. Briefly, 12-mers and 6-mer-AXa with a pNP tag (5-10 mg) and 0.5 mg Pd/C were dissolved in 20 mM NaOAc, pH 5.0 in a total volume of 4 ml. Reaction mixture was vacuumed and refilled with H2 three times. The reaction was then incubated at room temperature for 4 h. After that, it was filtered to remove charcoal. The filtered solution was adjusted to pH 8.5 using 500 mM Na2HPO4. Succinimidyl 6-azidohexanoate (20 molar equivalent of starting oligosaccharides) was added and incubated at 37° C. overnight. Reaction was purified by DEAE-HPLC column to generate azido tagged oligosaccharides. PBS (pH7.4) buffer was bubbled with N2 for 5 min to prepare the sample solution of 0.1 M CuSO4, 0.1 M Tris(3-hydroxypropyl-triazolylmethyl)amine (THPTA)(Sigma), 0.15 M sodium ascorbate, 0.01 M azido tagged oligosaccharides and 0.02 M biotin-PEG4-alkyne (Sigma). The mixture of […] and 80 μl CuSO4 was vortexed, then 160 μl sodium ascorbate, 200 μl azido tagged oligomers and 200 μl biotin-PEG4-alkyne was added and bubbled with N2 for 2 min, then incubated at 37° C. overnight. The reaction was purified by DEAE-HPLC column to generate biotinylated products. The biotinylated 12-mers and 6-mer-AXa products were confirmed by ESI-MS.
Briefly, liver lysate was prepared by snap freezing tissue in liquid nitrogen at the time of sacrifice. The tissue was mechanically homogenized in buffer containing 200 mM MES, 500 mM phosphate, and 1 mM EDTA at pH 6 followed by three rounds of freeze thawing. The lysed sample were centrifuged at 10,000× g for 15 min at 4° C. Biotinylated HS oligosaccharides (final concentration 0.1 mM) were mixed with 20 μl of fresh liver lysate (˜0.6 mg) in 100 mM NaCl 20 mM HEPES pH 7.2 and incubated overnight at 4° C. The purification and biotinylated HS bound complex where achieved using avidin-Sepharose and increasing concentration of NaCl washes. […]

MPO = MPO activity in ischemic liver lysate after liver IR; type: in vivo, mouse; details: 1 mg/kg SC, 6 h reperfusion
Method: Liver ischemia-reperfusion (IR) surgery was performed by the Animal Surgery Core Laboratory of the McAllister Heart Institute, University of North Carolina Chapel Hill, NC. The mouse experiments were approved by the UNC Animal Care and Use Committees and complied with National Institutes of Health guidelines. Male C57BL/6J mice, approximately 8 weeks old, were used in the IR surgeries. Mice received a subcutaneous (SC) injection of 1 mg/kg oligosaccharide or the equivalent volume of saline 30 minutes prior to the surgical procedure. For the combination treatment of 12-mer-3+6-mer-AXa, equal concentration of each oligosaccharide was combined into a single solution. Under ketamine/xylazine anesthesia, an abdominal midline incision was made to expose the portal vein. […]
Ischemia liver lobe was mechanically homogenized in 50 mM CTAB 50 mM potassium phosphate pH 6 at a ratio of 100 μl buffer per 10 mg tissue. […] Total protein concentration was measured by Bradford assay. 10 μl of liver lysate was incubated with 80 μl of 0.75 mM H2O2 and 110 μl of TMB (TMB liquid reagent, ready-to-use, Sigma) for 10 minutes at 37° C. with gentle agitation. The reaction was stopped by addition of 2.5 M H2SO4 and read at 450 nm. Activity (U/g protein) was calculated as absorbance of sample minus the absorbance of the blank divided by incubation time. […]

[3] = tested on: liver IR injury mouse model; experiment: Liver ischemia-reperfusion (IR) injury mouse model: plasma markers and histology; type: in vivo; details: 6 h reperfusion, vs IR; for hepatic necrotic area in ischemic lobe (H&E) / plasma ALT: 1 mg/kg SC 30 min before 60 min ischemia; for neutrophil infiltration into ischemic liver (immunohistochemistry): 1 mg/kg SC
Method: Liver ischemia-reperfusion (IR) surgery was performed by the Animal Surgery Core Laboratory of the McAllister Heart Institute, University of North Carolina Chapel Hill, NC. The mouse experiments were approved by the UNC Animal Care and Use Committees and complied with National Institutes of Health guidelines. Male C57BL/6J mice, approximately 8 weeks old, were used in the IR surgeries. Mice received a subcutaneous (SC) injection of 1 mg/kg oligosaccharide or the equivalent volume of saline 30 minutes prior to the surgical procedure. For the combination treatment of 12-mer-3+6-mer-AXa, equal concentration of each oligosaccharide was combined into a single solution. Under ketamine/xylazine anesthesia, an abdominal midline incision was made to expose the portal vein. A clamp was placed on the portal vein and bile duct to three major liver lobes to cause a 70% hepatic ischemia. Visible blanching of the ischemic liver lobes confirmed correct placement of the clamp. A temporary stitch closure of the muscle and skin over the clamp was used to prevent dehydration during the ischemia phase. Mice stayed on a heating pad and under anesthesia during the ischemia phase (60 minutes). The clamp was removed after 60 minutes and the ischemia liver lobes regained their red color as blood began to reperfusion the tissue, an indicator of correct reperfusion occurring. The incisions were closed in two layers with 5-0 silk sutures and the mice returned to their active state (no anesthesia used during the reperfusion phase). After 6 hours, the mice were re-anaesthetized, blood was drawn via cardiac puncture and ischemia liver lobes were harvested for histology (fixed in 10% formalin).
Plasma ALT was measured using the ALT Infinity reagent (Thermo Fisher) following the manufacturer's instructions. Plasma TNF-α was measured using Mouse TNF-α DuoSet Kit (R&D Systems) according to the manufacturer's instructions. Plasma HMGB1 levels were determined using HMGB1 ELISA Kit (Tecan US) according to the manufacturer's instructions. Plasma syndecan-1 levels were determined using Mouse Syndecan-1 ELISA (CellSciences) according to manufacturer's instructions. Plasms IL-6 levels were determined using Mouse IL-6 ELISA (R&D Systems).
Ischemia liver tissues were fixed in 10% neutral buffered formalin for 24 hours at room temperature, paraffin-embedded, and sectioned. Liver sections (4 μm) were stained with hematoxylin-eosin (H&E) or immunostained with monoclonal antibodies anti-neutrophil (Abcam, Ab 2557, NIMP-R14) followed by goat anti-rat or goat anti-rabbit biotinylated secondary antibodies (Abcam). Embedding, sectioning and H&E staining were performed at the Animal Histopathology and Laboratory Medicine Core Facility at UNC Chapel Hill. H&E analyses were performed by the Translational Pathology Laboratory Core Facility at UNC Chapel Hill using Aperio ImageScope Software (Leica Biosystems, Concord, Canada). IHC images were captured using an HD camera attached to a bright field microscope (Leica DM 1000 LED, Leica Microsystems Inc., IL, USA) and were processed using ImageJ. For neutrophil quantitation, five 100× images were randomly selected for each sample and the average neutrophils/field were reported.
1 mg/kg of 18-mer or equal volume of sterile saline was administered by subcutaneous injection 30 minutes prior to start of the ischemia phase. Ischemia to 70% of the liver was caused by clamping the portal vein and bile duct for 60 minutes. After the clamp was removed, the reperfusion phase last 6 hours before the animals were sacrificed for collection of liver tissue and blood. For surgical controls, a sham operation was performed such that the animal experienced the same anesthesia, abdominal midline incision, and suturing as the IR mice (FIG. 11A).

FXa (Homo sapiens) = tested on: T3, FXa (Homo sapiens); experiment: Ex vivo plasma FXa activity of mice after liver IR; type: in vivo, mouse; details: 1 mg/kg SC 30 min before ischemia; plasma after 6 h reperfusion; vs IR
T3 construct: purchased Enzyme Research Laboratories (FXa); Cutter Biologics (antithrombin)
T3 sequence (P01008 33-464): as the sequence (P01008 33-464) above
Method: as §1
For ex vivo studies, mouse plasma collected after the 6 hour reperfusion period and assayed the same as described above.
Liver ischemia-reperfusion (IR) surgery was performed by the Animal Surgery Core Laboratory of the McAllister Heart Institute, University of North Carolina Chapel Hill, NC. The mouse experiments were approved by the UNC Animal Care and Use Committees and complied with National Institutes of Health guidelines. Male C57BL/6J mice, approximately 8 weeks old, were used in the IR surgeries. […]

human FXa (Homo sapiens) [4] = tested on: T1, human FXa (Homo sapiens); details: as previously demonstrated [15]; cited from earlier work
liver IR injury in rats = details: cited from earlier work

| Compound | anti-FXa activity (anticoagulant activity) (human FXa (Homo sapiens) [1]) | HMGB1 pulldown from liver lysate (HMGB1) | hepatic necrotic area in ischemic lobe (H&E) [3] | plasma ALT [3] | neutrophil infiltration into ischemic liver (immunohistochemistry) [3] | plasma FXa activity (FXa (Homo sapiens)) | also measured |
| --- | --- | --- | --- | --- | --- | --- | --- |
| GlcNS6S-GlcA-GlcNS6S-GlcA-GlcNS6S-GlcA-GlcNS6S-GlcA-GlcNS6S-GlcA-GlcNS6S-GlcA-pNP [12-mer-4] | did not display anti-FXa activity | – | – | – | – | – | – |
| GlcNS6S-GlcA-GlcNS6S3S-IdoA2S-GlcNS6S-IdoA2S-GlcNS6S-IdoA2S-GlcNS6S-IdoA2S-GlcNS6S-GlcA-pNP [12-mer-1] | – | successfully pull down HMGB1 | decreased hepatic necrosis | significantly decreased plasma ALT | decreased neutrophil infiltration | significantly decreased FXa activity | toxicity (rat model): no toxicity; renal clearance [2]: renal clearance impairment of 12-mer-1 was demonstrated; decrease of MPO activity compared to the IR group (MPO): 60%; IC50 (human FXa (Homo sapiens) [1]; with antithrombin, substrate S-2765): 0.063 µM |
| GlcNS6S-GlcA-GlcNS6S-IdoA2S-GlcNS6S-IdoA2S-GlcNS6S-IdoA2S-GlcNS6S-IdoA2S-GlcNS6S-GlcA-pNP [12-mer-3] | did not display anti-FXa activity | successfully pull down HMGB1 | not 12-mer-3 decreased ALT and necrosis | not 12-mer-3 decreased ALT | did not | – | MPO activity (MPO): 96.00 U/g protein |
| GlcNS-GlcA-GlcNS-IdoA2S-GlcNS-IdoA2S-GlcNS-IdoA2S-GlcNS-IdoA2S-GlcNS-GlcA-pNP [12-mer-2] | did not display anti-FXa activity | – | – | – | – | – | – |
| GlcNS6S-GlcA-GlcNS6S3S-IdoA2S-GlcNS6S-GlcA-pNP [6-mer-AXa] | – | does not pull down HMGB1 | – | no statistical difference in the concentration of ALT | – | Anticoagulant levels are similar between both treatment groups | anticoagulant activity through inhibition of FXa (human FXa (Homo sapiens) [4]): has anticoagulant activity through inhibition of FXa |
| CC(=N)N1CC[C@H](Oc2ccc([C@H](Cc3ccc4ccc(C(=N)N)cc4c3)C(=O)O)cc2)C1 [DX9065a] | – | – | – | – | – | – | liver IR injury (liver IR injury in rats): no protection |
